Data: patent US20250326744A1, “PIPERAZINE DERIVATIVE OR SALT THEREOF, AND PHARMACEUTICAL COMPOSITION” (priority 2022, published 2025)
Where a name gives a salt, the structure may show the parent alone.

Legend:
[1] = test system: S-3769 strain; assay: Combinational effect with antibacterial agent against Pseudomonas aeruginosa (Test Examples 2 and 4): S-3769 strain with AMK or GM at 1/4 MIC, EC99; assay type: cell-based; conditions: for EC99, combinational effect with AMK, S-3769 strain / EC99, S-3769 strain, AMK: combined with AMK at 1/4 MIC; for EC99, combinational effect with AMK, S-3769 strain / EC99, combinational effect with GM, S-3769 strain: Test Example 4; for EC99, combinational effect with GM, S-3769 strain / EC99, S-3769 strain, GM: combined with GM at 1/4 MIC; for EC99, S-3769 strain, AMK / EC99, S-3769 strain, GM: Table 52, Test Example 2, 16 to 20 hours culture, OD595
How it was run: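 P. aeruginosa S-3769 (clinical isolate, MexY overexpressed) grown 16–20 h in CAMHB, 10^4 to 5 CFU/well, with AMK or GM at ¼ MIC plus test compound 0–800 μM. Growth read as OD595; EC99 is the lowest compound concentration giving ≥99% growth inhibition.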

[2] = test system: mexB (PA) strain; assay: Combinational effect with antibacterial agent against Pseudomonas aeruginosa (Test Examples 2 and 4): mexB (PA) strain with LVFX, TC or AZT at 1/4 MIC, EC99; assay type: cell-based; conditions: for EC99, combinational effect with AZT, mexB (PA) / EC99, combinational effect with LVFX, mexB (PA) / EC99, combinational effect with TC, mexB (PA): mexB (PA) strain, Test Example 4; for EC99, combinational effect with AZT, mexB (PA) / EC99, mexB (PA), AZT: combined with AZT at 1/4 MIC; for EC99, combinational effect with LVFX, mexB (PA) / EC99, mexB (PA), LVFX: combined with LVFX at 1/4 MIC; for EC99, combinational effect with TC, mexB (PA) / EC99, mexB (PA), TC: combined with TC at 1/4 MIC; for EC99, mexB (PA), AZT / EC99, mexB (PA), LVFX / EC99, mexB (PA), TC: Table 52, Test Example 2, 16 to 20 hours culture, OD595
How it was run: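 P. aeruginosa mexB (PA) strain, lacking MexCD-OprJ, MexEF-OprN and MexXY and overexpressing MexAB-OprM, grown 16–20 h in CAMHB (10^4–5 CFU/well) with LVFX, TC or AZT at ¼ MIC plus test compound at 0–800 μM. Growth read as OD595; EC99 is the lowest compound concentration giving ≥99% growth inhibition.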

CSc1ccccc1CN1CCN(C(=O)[C@H](N)C2CCN(CCc3cc(Cl)ccc3C3=CCNCC3)CC2)CC1 [Example 602, Hydrochloride of (R)-2-amino-2-(1-(5-chloro-2-(1,2,3,6-tetrahydropyridin-4-yl)phenethyl)piperidin-4-yl)-1-(4-(2-(methylthio)benzyl)piperazin-1-yl) ethan-1-one]
EC99, combinational effect with AMK, S-3769 strain [1]: S (EC99≤12.5 μM)
EC99, combinational effect with GM, S-3769 strain [1]: S (EC99≤12.5 μM)
EC99, combinational effect with AZT, mexB (PA) [2]: B (25 μM<EC99≤100 μM)
EC99, combinational effect with LVFX, mexB (PA) [2]: S (EC99≤12.5 μM)
EC99, combinational effect with TC, mexB (PA) [2]: S (EC99≤12.5 μM)

CSc1ccccc1CN1CCN(C(=O)[C@H](N)C2CCN(CCc3cc(Cl)ccc3-c3cc(O)cc(F)c3)CC2)CC1 [Example 617, (R)-2-amino-2-(1-(2-(4-chloro-3′-fluoro-5′-hydroxy-[1,1′-biphenyl]-2-yl)ethyl)piperidin-4-yl)-1-(4-(2-(methylthio)benzyl)piperazin-1-yl)ethan-1-one]
EC99, combinational effect with AMK, S-3769 strain [1]: S (EC99≤12.5 μM)
EC99, combinational effect with GM, S-3769 strain [1]: S (EC99≤12.5 μM)
EC99, combinational effect with AZT, mexB (PA) [2]: S (EC99≤12.5 μM)
EC99, combinational effect with LVFX, mexB (PA) [2]: S (EC99≤12.5 μM)
EC99, combinational effect with TC, mexB (PA) [2]: S (EC99≤12.5 μM)

CCOc1cccc(F)c1CN1CCN(C(=O)[C@H](N)C2CC[N+](C)(CCc3cc(Cl)ccc3-c3ccccc3)CC2)CC1 (stereo partly drawn) [Example 568, Hydrobromide of (R)-4-(1-amino-2-(4-(2-ethoxy-6-fluorobenzyl)piperazin-1-yl)-2-oxoethyl)-1-(2-(4-chloro-[1,1-biphenyl]-2-yl)ethyl)-1-methylpiperidin-1-ium bromide]
EC99, combinational effect with AMK, S-3769 strain [1]: S (EC99≤12.5 μM)
EC99, combinational effect with GM, S-3769 strain [1]: S (EC99≤12.5 μM)
EC99, combinational effect with AZT, mexB (PA) [2]: C (100 μM<EC99)
EC99, combinational effect with LVFX, mexB (PA) [2]: C (100 μM<EC99)
EC99, combinational effect with TC, mexB (PA) [2]: C (100 μM<EC99)

CCOc1cccc(F)c1CN1CCN(C(=O)[C@H](N)C2CCN(CCc3cc(Cl)ccc3-c3ccccc3OC)CC2)CC1 [Example 76, Hydrobromide of (R.)-2-amino-2-(1-(2-(4-chloro-2′-methoxy-[1,1′-biphenyl]-2-yl)ethyl)piperidin-4-yl)-1-(4-(2-ethoxy-6-fluorobenzyl)piperazin-1-yl)ethan-1-one]
EC99, S-3769 strain, AMK [1]: A (12.5 μM<EC99≤25 μM)
EC99, S-3769 strain, GM [1]: A (12.5 μM<EC99≤25 μM)
EC99, mexB (PA), AZT [2]: A (12.5 μM<EC99≤25 μM)
EC99, mexB (PA), LVFX [2]: B (25 μM<EC99≤100 μM)
EC99, mexB (PA), TC [2]: B (25 μM<EC99≤100 μM)

CCOc1cccc(F)c1CN1CCN(C(=O)[C@H](N)C2CCN(CCc3cc(Cl)ccc3-c3cccc(N(C)C)c3)CC2)CC1 [Example 562, Hydrobromide of (R)-2-amino-2-(1-(2-(4-chloro-3′-(dimethylamino)-[1,1-biphenyl]-2-yl)ethyl)piperidin-4-yl)-1-(4-(2-ethoxy-6-fluorobenzyl)piperazin-1-yl)ethan-1-one]
EC99, combinational effect with AMK, S-3769 strain [1]: S (EC99≤12.5 μM)
EC99, combinational effect with GM, S-3769 strain [1]: S (EC99≤12.5 μM)
EC99, combinational effect with AZT, mexB (PA) [2]: A (12.5 μM<EC99≤25 μM)
EC99, combinational effect with LVFX, mexB (PA) [2]: B (25 μM<EC99≤100 μM)
EC99, combinational effect with TC, mexB (PA) [2]: B (25 μM<EC99≤100 μM)

CCOc1cccc(F)c1CN1CCN(C(=O)[C@H](N)C2CCN(CCc3cc(Cl)ccc3-c3ccc(F)cc3O)CC2)CC1 [Example 108, Hydrochloride of (R)-2-amino-2-(1-(2-(4-chloro-4′-fluoro-2′-hydroxy-[1,1′-biphenyl]-2-yl)ethyl)piperidin-4-yl)-1-(4-(2-ethoxy-6-fluorobenzyl)piperazin-1-yl)ethan-1-one]
EC99, S-3769 strain, AMK [1]: S (EC99≤12.5 μM)
EC99, S-3769 strain, GM [1]: A (12.5 μM<EC99≤25 μM)
EC99, mexB (PA), AZT [2]: B (25 μM<EC99≤100 μM)
EC99, mexB (PA), LVFX [2]: B (25 μM<EC99≤100 μM)
EC99, mexB (PA), TC [2]: A (12.5 μM<EC99≤25 μM)

N[C@@H](C(=O)N1CCN(Cc2ccccc2C2CC2)CC1)C1CCN(CCc2cc(Cl)ccc2-c2ccccc2)CC1 [Example 507, Hydrobromide of (R)-2-amino-2-(1-(2-(4-chloro-[1,1-biphenyl]-2-yl)ethyl)piperidin-4-yl)-1-(4-(2-cyclopropylbenzyl)piperazin-1-yl)ethan-1-one]
EC99, combinational effect with AMK, S-3769 strain [1]: B (25 μM<EC99≤100 μM)
EC99, combinational effect with GM, S-3769 strain [1]: B (25 μM<EC99≤100 μM)
EC99, combinational effect with AZT, mexB (PA) [2]: B (25 μM<EC99≤100 μM)
EC99, combinational effect with LVFX, mexB (PA) [2]: B (25 μM<EC99≤100 μM)
EC99, combinational effect with TC, mexB (PA) [2]: B (25 μM<EC99≤100 μM)

CCOc1cccc(F)c1CN1CCN(C(=O)[C@H](N)C2CCN(CCc3ccccc3-c3ccccc3)CC2)CC1 [Example 109, hydrochloride of (R)-2-(1-(2-([1,1′-biphenyl]-2-yl)ethyl)piperidin-4-yl)-2-amino-1-(4-(2-ethoxy-6-fluorobenzyl)piperazin-1-yl)ethan-1-one]
EC99, S-3769 strain, AMK [1]: 4 µM
EC99, S-3769 strain, GM [1]: A (12.5 μM<EC99≤25 μM)
EC99, mexB (PA), AZT [2]: B (25 μM<EC99≤100 μM)
EC99, mexB (PA), LVFX [2]: C (100 μM<EC99)
EC99, mexB (PA), TC [2]: B (25 μM<EC99≤100 μM)

N[C@@H](C(=O)N1CCN(CC2CCCCC2)CC1)C1CCN(CCc2cc(Cl)ccc2-c2ccccc2)CC1 [Example 526, Hydrobromide of (R)-2-amino-2-(1-(2-(4-chloro-[1,1-biphenyl]-2-yl)ethyl)piperidin-4-yl)-1-(4-(cyclohexylmethyl)piperazin-1-yl)ethan-1-one]
EC99, combinational effect with AMK, S-3769 strain [1]: A (12.5 μM<EC99≤25 μM)
EC99, combinational effect with GM, S-3769 strain [1]: A (12.5 μM<EC99≤25 μM)
EC99, combinational effect with AZT, mexB (PA) [2]: B (25 μM<EC99≤100 μM)
EC99, combinational effect with LVFX, mexB (PA) [2]: B (25 μM<EC99≤100 μM)
EC99, combinational effect with TC, mexB (PA) [2]: A (12.5 μM<EC99≤25 μM)

CCOc1cccc(F)c1CN1CCN(C(=O)[C@H](N)C2CCN(CCc3cc(Cl)ccc3-c3cccc(O)c3F)CC2)CC1 [Example 595, Hydrochloride of (R)-2-amino-2-(1-(2-(4-chloro-2-fluoro-3′-hydroxy-[1,1-biphenyl]-2-yl)ethyl)piperidin-4-yl)-1-(4-(2-ethoxy-6-fluorobenzyl)piperazin-1-yl)ethan-1-one]
EC99, combinational effect with AMK, S-3769 strain [1]: S (EC99≤12.5 μM)
EC99, combinational effect with GM, S-3769 strain [1]: A (12.5 μM<EC99≤25 μM)
EC99, combinational effect with AZT, mexB (PA) [2]: S (EC99≤12.5 μM)
EC99, combinational effect with LVFX, mexB (PA) [2]: S (EC99≤12.5 μM)
EC99, combinational effect with TC, mexB (PA) [2]: S (EC99≤12.5 μM)

N[C@@H](C(=O)N1CCN(Cc2cccc3ccoc23)CC1)C1CCN(CCc2cc(Cl)ccc2-c2ccccc2)CC1 [Example 39, Hydrobromide of (R)-2-amino-1-(4-(benzofuran-7-ylmethyl)piperazin-1-yl)-2-(1-(2-(4-chloro-[1,1′-biphenyl]-2-yl)ethyl)piperidin-4-yl)ethan-1-one]
EC99, S-3769 strain, AMK [1]: A (12.5 μM<EC99≤25 μM)
EC99, S-3769 strain, GM [1]: B (25 μM<EC99≤100 μM)
EC99, mexB (PA), AZT [2]: A (12.5 μM<EC99≤25 μM)
EC99, mexB (PA), LVFX [2]: B (25 μM<EC99≤100 μM)
EC99, mexB (PA), TC [2]: A (12.5 μM<EC99≤25 μM)

Nc1nc2c(CN3CCN(C(=O)[C@H](N)C4CCN(CCc5cc(Cl)ccc5-c5ccccc5)CC4)CC3)cccc2s1 [Example 519, Hydrobromide of (R)-2-amino-1-(4-((2-aminobenzo[d]thiazol-4-yl)methyl)piperazin-1-yl)-2-(1-(2-(4-chloro-[1,1-biphenyl]-2-yl)ethyl)piperidin-4-yl)ethan-1-one]
EC99, combinational effect with AMK, S-3769 strain [1]: B (25 μM<EC99≤100 μM)
EC99, combinational effect with GM, S-3769 strain [1]: B (25 μM<EC99≤100 μM)
EC99, combinational effect with AZT, mexB (PA) [2]: C (100 μM<EC99)
EC99, combinational effect with LVFX, mexB (PA) [2]: C (100 μM<EC99)
EC99, combinational effect with TC, mexB (PA) [2]: B (25 μM<EC99≤100 μM)

CSc1ccccc1CN1CCN(C(=O)[C@H](N)C2CCN(CCc3cscc3-c3ccccc3)CC2)CC1 [Example 539, Hydrobromide of (R)-2-amino-1-(4-(2-(methylthio)benzyl)piperazin-1-yl)-2-(1-(2-(4-phenylthiophen-3-yl)ethyl)piperidin-4-yl)ethan-1-one]
EC99, combinational effect with AMK, S-3769 strain [1]: B (25 μM<EC99≤100 μM)
EC99, combinational effect with GM, S-3769 strain [1]: B (25 μM<EC99≤100 μM)
EC99, combinational effect with AZT, mexB (PA) [2]: B (25 μM<EC99≤100 μM)
EC99, combinational effect with LVFX, mexB (PA) [2]: B (25 μM<EC99≤100 μM)
EC99, combinational effect with TC, mexB (PA) [2]: B (25 μM<EC99≤100 μM)

N[C@@H](C(=O)N1CCN(Cc2scc3c2OCCO3)CC1)C1CCN(CCc2cc(Cl)ccc2-c2ccccc2)CC1 [Example 11, Hydrobromide of (R)-2-amino-2-(1-(2-(4-chloro-[1,1′-biphenyl]-2-yl)ethyl)piperidin-4-yl)-1-(4-((2,3-dihydrothieno[3,4-b][1,4]dioxin-5-yl)methyl)piperazin-1-yl)ethan-1-one]
EC99, S-3769 strain, AMK [1]: B (25 μM<EC99≤100 μM)
EC99, S-3769 strain, GM [1]: A (12.5 μM<EC99≤25 μM)
EC99, mexB (PA), AZT [2]: B (25 μM<EC99≤100 μM)
EC99, mexB (PA), LVFX [2]: B (25 μM<EC99≤100 μM)
EC99, mexB (PA), TC [2]: B (25 μM<EC99≤100 μM)
